Our source for the EC50 values is PubChem BioAssay AID1671465 (Sanford-Burnham Center for Chemical Genomics, 2021).

Activity calls are given as the source filed them.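 Rule for the calls: active = compounds whose mean EC50 for raising GC-A cGMP output is under 66 µM; inactive = the rest.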 A value given as a limit tells only on which side of the number the result lay.

This test addresses Atrial natriuretic peptide receptor 1 (Homo sapiens) (UniProt P16066). Briefly: human GC-A cGMP response enhancers – HEK293 GC-A cells, cGMP TR-FRET, powder samples, SAR follow-up (AID 1671465). The following applies: EC30 ANP.

Sequence of Atrial natriuretic peptide receptor 1 (Homo sapiens) (P16066 whole entry, looked up): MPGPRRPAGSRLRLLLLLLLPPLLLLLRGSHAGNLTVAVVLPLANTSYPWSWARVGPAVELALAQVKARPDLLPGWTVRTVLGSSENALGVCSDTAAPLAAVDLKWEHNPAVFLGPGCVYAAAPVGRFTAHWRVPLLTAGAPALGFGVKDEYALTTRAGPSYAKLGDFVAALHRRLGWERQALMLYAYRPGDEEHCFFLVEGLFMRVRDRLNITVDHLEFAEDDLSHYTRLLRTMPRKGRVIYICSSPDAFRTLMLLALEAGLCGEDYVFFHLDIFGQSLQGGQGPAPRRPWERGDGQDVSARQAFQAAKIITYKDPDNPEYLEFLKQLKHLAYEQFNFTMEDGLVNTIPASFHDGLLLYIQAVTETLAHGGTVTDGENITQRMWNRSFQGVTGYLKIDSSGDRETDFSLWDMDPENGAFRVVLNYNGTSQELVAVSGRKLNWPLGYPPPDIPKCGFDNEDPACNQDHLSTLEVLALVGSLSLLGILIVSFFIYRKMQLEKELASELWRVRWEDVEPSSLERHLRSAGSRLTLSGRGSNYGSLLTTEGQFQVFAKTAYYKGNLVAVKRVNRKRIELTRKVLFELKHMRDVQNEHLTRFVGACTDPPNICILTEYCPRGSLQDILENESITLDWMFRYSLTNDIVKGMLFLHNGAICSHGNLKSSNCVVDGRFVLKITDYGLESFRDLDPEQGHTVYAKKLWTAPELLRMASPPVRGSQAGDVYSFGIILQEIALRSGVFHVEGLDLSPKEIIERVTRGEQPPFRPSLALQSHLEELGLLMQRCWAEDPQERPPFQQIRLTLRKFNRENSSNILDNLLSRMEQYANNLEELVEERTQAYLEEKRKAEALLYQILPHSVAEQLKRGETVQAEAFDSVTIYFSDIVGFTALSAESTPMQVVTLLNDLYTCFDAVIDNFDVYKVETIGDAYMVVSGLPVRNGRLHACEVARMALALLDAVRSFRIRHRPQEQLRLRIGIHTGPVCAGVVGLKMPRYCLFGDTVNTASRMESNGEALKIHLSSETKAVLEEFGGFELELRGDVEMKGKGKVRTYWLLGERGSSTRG

Broadly, the EC50 is the concentration that produces a half-maximal response. Turning to `CS(=O)(=O)N1CCCC(C(=O)Nc2nc3c(F)cc(F)cc3s2)C1` (stereo unspecified), the EC50 was 1750 nM.

For `O=C(Nc1nc2c(F)cc(F)cc2s1)C1CCCN(Cc2ccccc2)C1` (stereo unspecified), the concentration giving a half-maximal response (EC50) was 2410 nM.

As for `CC(C)(C)C(=O)N1CCCC(C(=O)Nc2nc3c(F)cc(F)cc3s2)C1` (stereo unspecified), the concentration for a half-maximal effect (EC50) is 5070 nM.

Turning to `CC(C)(C)OC(=O)N1CCCC(C(=O)Nc2nc3c(F)cc(F)cc3s2)C1` (stereo unspecified), the EC50 was 8260 nM.

For the compound `CC(C)(C)CC(=O)N1CCCC(C(=O)Nc2nc3c(F)cc(F)cc3s2)C1` (stereo unspecified), the half-maximal effective concentration (EC50) is 3570 nM.

Take `CC(C)(C)C(=O)N1CCC(C(=O)Nc2nc3c(Cl)cccc3s2)CC1`: the concentration for a half-maximal effect (EC50) is 2000 nM.

Take `O=C(Nc1nc2c(F)cc(F)cc2s1)C1CCN(C(=O)C2CCC2)CC1`: the 50% effective concentration (EC50) was 1720 nM.

Consider `CC(=O)Nc1nc2c(F)cc(F)cc2s1`, for which the EC50 was 23900 nM.

Turning to `CN(C)CCN1CCCC(C(=O)Nc2nc3c(F)cc(F)cc3s2)C1` (stereo unspecified), the half-maximal effective concentration (EC50) was 393 nM.

With `CC(=O)N1CCCC(C(=O)Nc2nc3c(F)cc(F)cc3s2)C1` (stereo unspecified), the EC50 was 1650 nM.

Take `CC(C)N1CCC(C(=O)Nc2nc3c(F)cc(F)cc3s2)CC1`: the half-maximal effective concentration (EC50) was 840 nM.

Consider `O=C(Nc1nc2c(F)cc(F)cc2s1)C1CCCNC1` (stereo unspecified), for which the concentration giving a half-maximal response (EC50) is 1050 nM.

Regarding `CC(=O)N1CCC(C(=O)Nc2nc3c(F)cc(F)cc3s2)CC1`, the EC50 was 1150 nM.

With `CC(C)(C)C(=O)N1CCC(C(=O)Nc2nc3c(F)cc(F)cc3s2)C1` (stereo unspecified), the EC50 was 2090 nM.

Take `O=C(Nc1nc2c(F)cc(F)cc2s1)C1CCCN(C(=O)Cc2ccccc2)C1` (stereo unspecified): the 50% effective concentration (EC50) was 2020 nM.

Consider `O=C(Nc1nc2c(F)cc(F)cc2s1)C1CCCN(C(=O)C2CCC2)C1` (stereo unspecified), for which the half-maximal effective concentration (EC50) is 1810 nM.

Regarding `O=C(Nc1nc2c(F)cc(F)cc2s1)C1CCCN(C(=O)c2ccccc2)C1` (stereo unspecified), the EC50 was 3360 nM.

Regarding `O=C(Nc1nc2c(F)cc(F)cc2s1)C1CCCCC1`, the EC50 was 2730 nM.

`CN1CCCC(C(=O)Nc2nc3c(F)cc(F)cc3s2)C1` (stereo unspecified): the EC50 is 1230 nM.

With `CC(C)(C)C(=O)N1CCC(C(=O)Nc2nc3c(Cl)ccc(Cl)c3s2)CC1`, the EC50 is > 66700 nM (inactive).

For the compound `O=C(Nc1nc2c(F)cc(F)cc2s1)C1CCCN(C(=O)C2CC2)C1` (stereo unspecified), the EC50 was 1970 nM.
